Data: article PMC4971072, “Chemically Homogenous Compounds with Antagonistic Properties at All α1-Adrenoceptor Subtypes but not β1-Adrenoceptor Attenuate Adrenaline-Induced Arrhythmia in Rats” (Frontiers in Pharmacology, 2016)
Counter-ions that a name gives are not always drawn.

Test system: α1-adrenergic receptor subtypes
Experiment: Comparison of functional affinities across α1-adrenoceptor subtypes (rat tail artery, mouse spleen, rat aorta)
Type: biochemical
Settings: from difference in pA2 values
Experimental: The isolated artery, cut into ~4 mm long rings, was then horizontally put up between two stainless steel hooks (diameter 0.15 mm). One hook was fastened to the bottom of the chamber and the other to an isometric FDT10-A force displacement transducer (DMT Model 750TOBS, Denmark), linked with Powerlab 4/26 analyzer (ADInstruments), and processed by LabChart 7 software. […] The initial optimal tissues tension was set at 0.75 g. Chloroethylclonidine (3 μM) as the preferential α1B-adrenoreceptor alkylating agent was used during incubation and after 30 min it was completely washed off. Through 100 min of equilibration tissues were stimulated with noradrenaline (1 μM) four times with washing out until the contractile response become constant. Two cumulative concentration-response curves to noradrenaline, at an interval of 60 min, were established on each arterial ring both in the presence and absence of antagonist. The incubation with antagonists went on for 30 min. The experiments were carried out in the constant presence of yohimbine (0.1 μM) and propranolol (1 μM) to block α2- and β-adrenoceptors, respectively in order to minimize the involvement of these adrenoceptors in the response to noradrenaline.
The influence on α1B-adrenoceptors was evaluated using the isolated mouse spleen. The spleen was removed from male mice right after killing the anesthetized animal by cervical dislocation. […]

COc1ccccc1N1CCN(CCCOc2cc(C)cc(C)c2C)CC1 [HBK-19, 1N-[3-(2,3,5-trimethylphenoxy)propyl]-4N-(2-methoxyphenyl)piperazine hydrochloride]
α1A-adrenoceptor blockade relative to α1B subtype (fold stronger): around seven-fold
